Where “and” joins values, the source holds several entries; their conditions need not be identical. Equal values may be shown once.
Tests used:
[1] = 28-day repeat dose inhalation toxicokinetics, study 7300225; assay type: in vivo, SD rats; settings: average of D28
Description: Two sets of animals were used to perform the toxicokinetic measurements for this study.

[2] = Lung concentration of rapamycin after inhalation, Study Day 1; assay type: in vivo, Sprague-Dawley rats
Description: The results of this initial study were replicated and expanded in additional rat studies and dog studies. […] Two sets of animals were used to perform the toxicokinetic measurements for this study.

[3] = Extrapolation of rat and dog inhalation data to human dosing; settings: extrapolated
[4] = test system: S6 phosphorylation (mTOR pathway); experiment: Phosphorylated S6 by western blot in AML cells; assay type: cell-based, human; settings: 20 nM, 24 hours (FIG. 7, top)
[5] = Observation for adverse effects / clinical signs after OPA dosing; settings: for adverse effects / clinical signs: 1 mg/kg, up to 72 h after dosing
Experimental: The oral dose was formulated using pharmaceutical oral liquid formulation Rapamune Oral® (Pfizer). […] An additional group of 6 mice received vehicle only (10% ethanol in water). […] At the 72-h necropsy, blood was obtained by cardiac puncture and the lungs removed.
The time of dosing was recorded as 0. Animals in groups 2 and 3 were euthanized at 1 h after dosing.

[6] = clinical use; cited from earlier work
[7] = Particle size distribution by laser diffraction after size reduction; assay type: physicochemical
Experimental: For jet milling, a lab scale MCOne unit from Jetpharma was used with the following operating conditions: venturi pressure 2-4 bar, milling pressure 3-5 bar, feed rate 90 g/h. For wet polishing, feed suspensions were prepared using purified water. A microfluidics high pressure homogenizer was used for the size reduction step and the resulting suspension was spray-dried. Details of the wet polishing process are set forth below.
The high pressure homogenizer used for the size reduction step of the wet polishing process was a pilot-scale Microfluidics High Pressure Homogenizer equipped with an auxiliary processing module (200 micron) and a 100 micron interaction chamber was used. The unit was operated at ˜455 bar (˜30 bar in the intensifier module hydraulic pressure). After microfluidization the fluid was removed by spray drying to generate a dry powder. A laboratory scale spray dryer, SD45 (BÜCHI, model B-290 Advanced) was equipped with a two fluid nozzle (cap and diameter were 1.4 and 0.7 mm, respectively). Two cyclones in series were used (being the first the standard Buchi cyclone and the second the high-performance Buchi cyclone) to collect the dried product. The spray drying unit was operated with nitrogen and in single pass mode, i.e. without recirculation of the drying nitrogen. The aspirator, blowing nitrogen, was set at 100% of its capacity (flow rate at maximum capacity is approximately 40 kg/h). The flow rate of the atomization nitrogen was adjusted to a value in the rotameter of 40±5 mm. Before feeding the product suspension, the spray dryer was stabilized with purified water, during which the flow rate was adjusted to 6 ml/min (20% in the peristaltic pump). The inlet temperature was adjusted to achieve the target outlet temperature (45° C.). After stabilization of the temperatures, the feed of the spray dryer was commuted from purified water to the product suspension (keeping the same flow rate used during stabilization) and the inlet temperature once again adjusted in order to achieve the target outlet temperature. At the end of the stock suspension, the feed was once more commuted to purified water in order to rinse the feed line and perform a controlled shut down. The dry product in the collection flasks under both cyclones was weighed and the yield calculated as the mass percentage of the dry product in relation to the total solids in the suspension fed to the high pressure homogenizer.
Particle size distribution was analyzed by laser diffraction. Solid state characterization (for polymorphic form and purity) was performed by high pressure liquid chromatography (HPLC), X-ray powder diffraction (XRPD), and differential scanning calorimetry (mDSC). Water content was determined by the Karl Fischer method.

in vivo = settings: Sprague-Dawley, rat, inhaled
[8] = emitted dose 50 ug, repeat inhaled daily dose 5 ug
[9] = emitted dose 2850 ug, repeat inhaled daily dose 285 ug
[10] = emitted dose 87 ug, repeat inhaled daily dose 35 ug
[11] = emitted dose 175 ug, repeat inhaled daily dose 70 ug

CO[C@H]1C[C@@H]2CC[C@@H](C)[C@@](O)(O2)C(=O)C(=O)N2CCCC[C@H]2C(=O)O[C@H]([C@H](C)C[C@@H]2CC[C@@H](O)[C@H](OC)C2)CC(=O)[C@H](C)/C=C(\C)[C@@H](O)[C@@H](OC)C(=O)[C@H](C)C[C@H](C)/C=C/C=C/C=C/1C [Rapamycin, (3 S,6R,7E,9R,10R,12R,14S,15E,17E,19E,21S,23 S,26R,27R,34aS)-9,10,12,13,-14,21,22,23,24,25,26,27,32,33,34,34a-hexadecahydro-9,27-dihydroxy-3-[(1R)-2-[(1S,3R,4R)-4-hydroxy-3-methoxycyclohexyl]-1-methylethyl]-10,21-dimethox-y-6,8,12,14,20,26-hexamethyl-23,27-epoxy-3H-pyrido[2,1-c][1,4]oxaazacyclohentriacontine-1,5,11,28,29(4H,6H,31H)-pentone]
Blood trough levels [1, 8]: 2 ng/mL | Max blood levels [1, 8]: 7.6 ng/mL | Max blood levels ([1]; emitted dose 1425 ug, repeat inhaled daily dose 143 ug): 70.5 ng/mL | Blood trough levels [1, 9]: 21.0 ng/mL | Max blood levels [1, 9]: 77.8 ng/mL | concentration at 2 h post-dosing ([2]; Sprague-Dawley, rat, lung, inhaled, target dose 11 ug Day 1, 2 hr post-dosing, read-out: Avg Lung rapa): 250 ng/g | concentration at 4 h post-dosing ([2]; Sprague-Dawley, rat, lung, inhaled, target dose 11 ug Day 1, 4 hr post-dosing, read-out: Avg Lung rapa): 192 ng/g | concentration at 12 h post-dosing ([2]; Sprague-Dawley, rat, lung, inhaled, target dose 11 ug Day 1, 12 hr post-dosing, read-out: Avg Lung rapa): 95 ng/g | Avg Lung rapa ([2]; target dose 11 ug Day 1, immediate post-dosing): 560 ng/g | Avg Lung rapa ([2]; target dose 11 ug Day 1, midway dosing): 462 ng/g | Blood trough levels [3, 10]: 0.15 ng/mL | Lung 24 hr trough levels [3, 10]: 2 ng/g | Max blood levels [3, 10]: 0.65 ng/mL | Blood trough levels [3, 11]: 0.3 ng/mL | Lung 24 hr trough levels [3, 11]: 4 ng/g | Max blood levels [3, 11]: 1.3 ng/mL | S6 phosphorylation [4]: potently inhibits S6 phosphorylation | adverse effects / clinical signs [5]: No significant clinical signs were observed | adverse effects / clinical signs ([5]; listed as rapamycin): No adverse effects were observed | acute toxicity to lung tissue ([5]; OPA 1 mg/kg, relatively high amounts in lung): not acutely toxic to lung tissue | lung toxicity [6]: pulmonary toxicity, usually in the form of interstitial pneumonitis | PSD Dv10 ([7]; jet milling): 1.5 μm and 1.51 μm | PSD Dv50 ([7]; jet milling): 2.7 μm and 2.74 μm | PSD Dv90 ([7]; jet milling): 4.9 μm and 4.91 μm | PSD Dv10 ([7]; wet polishing): 1.51 μm | PSD Dv50 ([7]; wet polishing): 2.74 μm | PSD Dv90 ([7]; wet polishing): 5.0 μm and 4.91 μm | concentration at 12 h (in vivo; lung, 0.036 mg/kg/day): 95 ng/g | concentration at 12 h (in vivo; lung, 1 mg/kg/day): ~14800 ng/g | concentration at 12 h (in vivo; whole blood, 0.036 mg/kg/day): 4 ng/mL | concentration at 12 h (in vivo; whole blood, 1 mg/kg/day): 645 ng/mL

Reference: US11648199B2 (AI Therapeutics, Inc, priority 2014, dated 2023)
